Counter-ions that a name gives are not always drawn. Like-named read-outs stand apart in the source and are kept apart here.
Legend:
[1] = target: T1, NMDA receptor (Mus musculus, UniProt P35438); assay: Maximal electroshock (MES)-induced tonic convulsions; assay type: in vivo; settings: for MES ID50 / ED50: i.p., 15 min before induction; for ED50: mouse, ip, 0.25 h, read-out: MES ID50
T1 construct: from tissue; host or cells: living mice (albino Swiss males for NMDA and PTZ tests, NMR females for MES)
Procedure: (§1) To assess NMDA receptor antagonistic properties of the tested agents by assessing anticonvulsive effects. Additionally the role of organic acid transporters in the elimination from the brain of tested agents was assessed by using an inhibitor, Probenicid, on the duration of anticonvulsive activity.
(§2) Male albino Swiss mice (19-21 g) housed 10-15 per cage were used for the NMDA lethality test (Leander et al., 1988). For pentylenetetrazol (PTZ)-induced convulsions male albino Swiss mice (25-34 g.) housed 40 per cage (58×38×20 cm) were used while in the maximal electroshock (MES) and motor impairment tests NMR female mice (18-28 g) housed 5 per cage were employed. All animals were kept with water and food ad libittum under a 12-h light-dark cycle (light on at 6 a.m.), and at a controlled temperature (20°±0.5° C.). All experiments were performed between 10 a.m. and 5 p.m. Tested agents were injected 15 min. i.p before the induction of convulsions if not stated otherwise (see below). Mrz 2/502 was dissolved in saline added with NaOH. Most other agents were dissolved in the following solution: 0.606 g Tris; 5.0 g. glucose; 0.5 g. Tween 80; and 95 ml water. The choline and tetramethylammonium salts were dissolved in distilled water.
MES (100 Hz, 0.5 sec shock duration, 50 mA shock intensity, 0.9 ms impulse duration, Ugo Basile) was applied through corneal electrodes. The presence of tonic convulsions was scored (tonic extension of hind paws with minimum angle to the body of 90°). In an additional experiment mice were injected with Probenicid (200 mg/kg) 30 min before administration of the tested agents to assess the role of organic acid transport in elimination (duration of action). The aim was to obtain ED50 s for all parameters scored using the Litchfield Wilcoxon (1949) test for quantal dose responses.

[2] = target: T2, NMDA receptor (Rattus norvegicus, UniProt P35439); assay: Patch clamp, inward currents to NMDA in cultured superior colliculus neurones; assay type: cell-based; settings: NMDA 200 μM, glycine 1 μM
T2 construct: endogenous in cells
Procedure: Cells were mechanically dissociated in 0.05% DNAase / 0.3% ovomucoid (Sigma) following a 15 minute pre-incubation with 0.66% trypsin / 0.1% DNAase (Sigma). The dissociated cells were then centrifuged at 18G for 10 minutes, resuspended in minimum essential medium (Gibco) and plated at a density of 200,000 cells cm onto poly-L-lysine (Sigma)-precoated plastic petri dishes (Falcon). The cells were nourished with NaHCO3 /HEPES-buffered minimum essential medium supplemented with 5% foetal calf serum and 5% horse serum (Gibco) and incubated at 37° C. with 5%CO2 at 95% humidity. The medium was exchanged completely following inhibition of further glial mitosis with cytosine-β-D-arabinofuranoside (20 μM Sigma) after about 7 days in vitro. Thereafter the medium was exchanged partially twice weekly. […] Moreover, the relatively small neurones (soma 15-20 μm .phi.) are ideally suited to minimise problems of buffered diffusion for concentration clamp experiments.
Patch clamp recordings were made from these neurones with polished glass electrodes (4-6 m.OMEGA.) in the whole cell mode at room temperature (20°-22° C.) with the aid of an EPC-7 amplifier (List). Test substances were applied by switching channels of a custom made fast superfusion system with a common outflow (10-20 ms exchange times). The contents of the intracellular solution were as follows (mM): CsCl (120), TEACl (20), EGTA (10), MgCl2 (1), CaCl2 (0.2), glucose (10), ATP (2), cAMP (0.25); pH was adjusted to 7.3 with CsOH or HCl. The extracellular solutions had the following basic composition (mM): NaCl (140), KCl (3), CaCl2 (0.2), glucose (10), HEPES (10), sucrose (4.5), tetrodotoxin (TTX 3*10-4). For most experiments glycine (1 μM) was present in all solutions. Experiments to test the glycine-dependence of the tricyclic "pyrido-phtalazin diones" were performed in the continuous presence of increasing concentrations of glycine (1-10 μM).
This effect was mediated at the glycineB site as evidenced by the parallel shift in the concentration-response curves in the presence of increasing glycine concentrations. Thus the Kbs of Mrz 2/502 as assessed according to the Cheng-Prusoff relationship were similar in glycine 1, 3 and 10 μM (80, 124 and 118 nM respectively). […] Choline derivatives had similar potencies to the free acids in vitro (Table14b).

[3] = target: T2, NMDA receptor; assay: Microelectrophoretic application of NMDA to spinal neurones in vivo; settings: responses of single rat spinal neurones; for ED50: rat, iv, read-out: Microelectrophoretic NMDA ID50; for Microelectrophoretic NMDA ID50: i.v.
Procedure: (§3) The ability of these glycineB antagonists to act as NMDA receptor antagonists in vivo was assessed using i.v. administration against responses of single neurones in the rat spinal cord to microelectrophoretic application of AMPA and NMDA.

[4] = tested on: AMPA; assay: Microelectrophoretic application of AMPA to spinal neurones in vivo; settings: i.v., responses of single rat spinal neurones
Procedure: as §3

[5] = target: T3, glycineB site of the NMDA receptor (rat cortical membranes) (Rattus norvegicus, UniProt P35439); assay: [3H]5,7-DCKA binding assay; settings: 10 nM [3H]5,7-DCKA
T3 construct: The cortex was dissected and homogenised in 20 volumes of ice-cold 0.32M sucrose; from tissue; host or cells: brain cortex membranes of male Sprague-Dawley rats
Procedure: Tissue preparation was performed according to Foster and Wong (1987). Male Sprague-Dawley rats (200-250g) were decapitated and their brains were removed rapidly. The cortex was dissected and homogenised in 20 volumes of ice-cold 0.32M sucrose using a glass-Teflon homogenizer. The homogenate was centrifuged at 1000×g for 10 min. The pellet was discarded and the supernatant centrifuged at 20,000×g for 20 min. The resulting pellet was resuspended in 20 volumes of distilled water and centrifuged for 20 min at 8000×g. Then the supernatant and the buffy coat were centrifuged three times (48,000× g for 20 min) in the presence of 5 mM Tris-HCl, pH 7.4. All centrifugation steps were carried out at 4° C. After resuspension in 5 volumes of 5 mM Tris-HCl, pH 7.4 the membrane suspension was frozen rapidly at -80° C. until the day of assay. On the day of assay the membranes were thawed and washed four times by resuspension in 5 mM Tris-HCl, pH 7.4 and centrifugation at 48,000× g for 20 min. The final pellet was suspended in assay buffer.
The amount of protein in the final membrane preparation was determined according to the method of Lowry (1951) with some modifications (Hartfree, 1972). 50 μl of Protein samples (in triplicates) were diluted to 1 ml with distilled water and treated with 0.9 ml of a solution containing 2 g potassium sodium tartrate and 10 g Na2 CO3 in 500 ml 1N NaOH and 500ml water. Blank and standard (with bovine serum albumin) were set up in the same way. The tubes were placed in a water bath at 50° C. for 10 min. and cooled at room temperature. 100 μl of a solution containing 2 g potassium sodium tartrate and 1 g CuSO4 x 5 H2 O in 90 ml water and 10 ml 1N NaOH were added. The samples were left at room temperature for at least 10 min., then 3 ml of Folin-Ciocalteu reagent (1 ml of reagent diluted with 15 ml water) was added rapidly during mixing. The tubes were again heated at 50° C. for 10 min. and cooled to room temperature. Absorbencies were then read in 1 cm cuvets at 650 nm. The final protein concentration used for our studies was between 100 and 250 μg/ml.
Incubation in both binding assays was terminated using a Millipore filter system. The samples, all in triplicate, were rinsed three times with 2.5 ml ice cold assay buffer over glass fibre filters obtained from Schleicher & Schuell under a constant vacuum. Following separation and rinse the filters were placed into scintillation liquid (5 ml; Ultima Gold) and radioactivity retained on the filters was determined by using conventional liquid scintillation counter (Hewlett Packard, Liquid Scintillation Analyser). `Total binding` was the absolute amount of radioligand bound in the absence of any additives whereas `non-specific` binding was determined in the presence of a high concentration of competitor.
[^3 H]5,7-DCKA binding assay
Experiments were performed according to the methods modified from previous groups (Canton et al., 1991; Yoneda et al., 1993). Membranes were suspended and incubated in 10 mM Tris-HCl, pH 7.4. Incubation time was 45 min at 4° C. Non-specific binding of [^3 H]5,7-DCKA was defined by the addition of unlabeled glycine at 0.1 mM. The stop-solution contained 10 mM Tris-HCl and 10 mM magnesium sulphate, pH 7.4. Filtration was performed as rapidly as possible. Displacement experiments were performed with a fixed [^3 H]5,7-DCKA concentration of 10 nM. Test compounds were diluted in water or DMSO and added in at least 5 different concentrations.

[6] = target: T1, NMDA receptor; assay: NMDA-induced convulsions / lethality test; assay type: in vivo; settings: ip, 0.25 h, i.p., 15 min before induction, read-out: NMDA ID50
Procedure: as §1, §2
In the NMDA-induced convulsions test in mice, a dose-response relationship for NMDA was first performed to determine the ED97 dose which was then used for testing of antagonistic properties. After injection of the ED97 dose of NMDA the animals were placed in a small cage (20×28×14 cm) and observed for 20 min. Death preceded by clonic convulsions and by tonic seizures was the pharmacological end-point.

[7] = peak currents, read-out: Peak NMDA IC50
[8] = plateau (steady-state) currents, read-out: Plateau NMDA IC50

Compound | IC50 [2, 7] [nM] | IC50 [2, 8] [nM] | IC50 [5] [nM] | other results
CCCN(CCC)S(=O)(=O)c1ccc(C(=O)O)cc1 [Probenecid, reference compound] |  |  |  | independent effect on MES-induced convulsions ([1]; 200 mg/kg): no independent effect
O=c1[nH][nH]c(=O)c2nc3ccc(Br)cc3cc12 [Mrz 2/586] | 2200 |  |  | MES ID50 ([1]; listed as 586, 15 min): > 50 mg/kg; ED50 [3]: > 16 mg/kg; Microelectrophoretic AMPA ID50 [4]: > 16.0 mg/kg
O=c1[nH][nH]c(=O)c2nc3cc(Cl)c(Cl)cc3cc12 [Mrz 2/574] |  |  |  | MES ID50 ([1]; listed as 574, 15 min): > 100 mg/kg
COc1ccc2c(c1)cc1c(=O)[nH]nc(O)c1[n+]2[O-] [Mrz 2/578] | 101000 | 7700 |  | ED50 [1]: > 100 mg/kg
O=c1[nH]nc(O)c2c1cc1ccccc1[n+]2[O-] [Mrz 2/577, 4-hydroxy-1-oxo-1,2-dihydro-pyridazino[4,5-b]-quinoline 5-oxide choline salt] |  |  |  | MES ID50 ([1]; listed as 577, 15 min): 23.7 mg/kg; ED50 [3]: 34 mg/kg; Microelectrophoretic AMPA ID50 [4]: > 32.0 mg/kg
O=c1[nH][nH]c(=O)c2nc3ccc(F)cc3cc12 [Mrz 2/572] | 12400 | 3500 | 1140 | MES ID50 ([1]; listed as 572, 15 min): > 100 mg/kg; ED50 [3]: > 16 mg/kg; Microelectrophoretic AMPA ID50 [4]: > 16.0 mg/kg
O=c1[nH]nc(O)c2c1cc1cc(Cl)c(Br)cc1[n+]2[O-] [Mrz 2/568, 7-bromo-8-chloro-4-hydroxy-1-oxo-1,2-dihydropyridazino-[4,5-b]-quinoline 5-oxide] | 10000 | 1500 |  | 
O=c1[nH]nc(O)c2c1cc1cc(Br)c(Cl)cc1[n+]2[O-] [Mrz 2/551, 7-chloro-8-bromo-4-hydroxy-1-oxo-1,2-dihydropyridazino-[4,5-b]-quinoline 5-oxide] | 2400 | 600 |  | 
COc1ccc2nc3c(=O)[nH][nH]c(=O)c3cc2c1 [Mrz 2/554] | 170000 | 36200 |  | ED50 [1]: > 100 mg/kg
COc1ccc2cc3c(=O)[nH][nH]c(=O)c3nc2c1 [Mrz 2/575] | 94000 | 14500 |  | ED50 [1]: > 100 mg/kg
O=c1[nH][nH]c(=O)c2nc3ccc(Cl)cc3cc12 [Mrz 2/569] | 2000 | 500 | 970 | MES ID50 ([1]; listed as 569, 15 min): > 50 mg/kg; ED50 [3]: > 16 mg/kg; Microelectrophoretic AMPA ID50 [4]: > 16.0 mg/kg
O=c1[nH]nc(O)c2c1cc1cc(Cl)ccc1[n+]2[O-] [Mrz 2/576, 8-chloro-4-hydroxy-1-oxo-1,2-dihydropyridazino[4,5-b]-quinoline 5-oxide choline salt] | 1100 | 500 | 450 | MES ID50 ([1]; listed as 576, 15 min): 7.7 mg/kg; Microelectrophoretic NMDA ID50 ([3]; listed as 576): 2.8 mg/kg; Microelectrophoretic AMPA ID50 ([4]; listed as 576): > 16.0 mg/kg
O=c1[nH]nc(O)c2c1cc1cc(Cl)c(Cl)cc1[n+]2[O-] [Mrz 2/518, 7,8-dichloro-4-hydroxy-1-oxo-1,2-dihydropyridazino-[4,5-b]-quinoline 5-oxide] | 3800 | 800 | 650 | ED50 [1]: > 60 mg/kg; ED50 [6]: > 100 mg/kg
O=c1[nH]nc(O)c2c1cc1cc(F)ccc1[n+]2[O-] [Mrz 2/571, 8-fluoro-4-hydroxy-1-oxo-1,2-dihydropyridazino[4,5-b]-quinoline 5-oxide choline salt] | 4900 | 1000 | 320 | MES ID50 ([1]; listed as 571, 15 min): 15.5 mg/kg; Microelectrophoretic NMDA ID50 ([3]; listed as 571): 4.7 mg/kg; Microelectrophoretic AMPA ID50 ([4]; listed as 571): 9.2 mg/kg
